Data: ChEMBL document CHEMBL1201862, “PubChem BioAssay data set” (2004)
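Exposure lasted 48 hours, with cells grown in 96-well plates and compounds tested at five concentrations. Abbreviation: GI50, concentration required for 50% inhibition of growth.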 The source made the active and inactive calls. No stated cut-off is given here; in the data, active = GI50 up to about 1.1 µM and inactive = higher.

Experiments:
Assay in all cases: inhibition of tumour cell growth, NCI panel, 48 h
[1] = system: UACC-62
[2] = system: MCF7
[3] = system: SF-295
[4] = system: NCI-H460
[5] = system: HOP-92
[6] = system: DU-145
[7] = system: EKVX
[8] = system: NCI-H23
[9] = system: A549
[10] = system: 786-0
[11] = system: RPMI-8226
[12] = system: HL-60
[13] = system: SNB-19
[14] = system: IGROV-1
[15] = system: NCI-H522
[16] = system: HOP-62
[17] = system: TK-10
[18] = system: SF-268
[19] = system: SK-MEL-2
[20] = system: K562
[21] = system: KM12
[22] = system: A498
[23] = system: RXF 393
[24] = system: UACC-257
[25] = system: CCRF-CEM
[26] = system: SN12C
[27] = system: HCT-116
[28] = system: ACHN
[29] = system: SNB-75
[30] = system: NCI/ADR-RES
[31] = system: HT-29
[32] = system: Hs-578T
[33] = system: MOLT-4
[34] = system: COLO 205
[35] = system: NCI-H226
[36] = system: LOX IMVI
[37] = system: BT-549
[38] = system: HCT-15
[39] = system: MDA-MB-435
[40] = system: MDA-MB-231
[41] = system: SK-OV-3
[42] = system: OVCAR-3
[43] = system: OVCAR-8
[44] = system: SF-539
[45] = system: PC-3
[46] = system: OVCAR-5
[47] = system: SW-620
[48] = system: M14
[49] = system: U-251
[50] = system: T47D
[51] = system: CAKI-1
[52] = system: HCC 2998
[53] = system: OVCAR-4
[54] = system: UO-31
[55] = system: SK-MEL-28
[56] = system: SR
[57] = system: MDA-N
[58] = system: Malme-3M
[59] = system: SK-MEL-5

Question: Which GI50 [1] does the source give for `CC1=C(C(=O)NCCc2ccccc2)CC(C(=O)NCCc2ccccc2)=C(C)N1` here?
Answer: > 100 µM (inactive)

Question: What about the GI50 [2] of the same molecule?
Answer: > 100 µM (inactive)

Question: What about the GI50 [3] of the same molecule?
Answer: > 100 µM (inactive)

Question: And the GI50 [4]?
Answer: 82.4 µM (inactive)

Question: What about the GI50 [5] of the same molecule?
Answer: 49.3 µM (inactive)

Question: What about the GI50 [6] of the same molecule?
Answer: > 100 µM (inactive)

Question: What about the GI50 [7] of the same molecule?
Answer: 65.3 µM (inactive)

Question: What about the GI50 [8] of the same molecule?
Answer: > 100 µM (inactive)

Question: And the GI50 [9]?
Answer: > 100 µM (inactive)

Question: What about the GI50 [10] of the same molecule?
Answer: 87.5 µM (inactive)

Question: What about the GI50 [11] of the same molecule?
Answer: 45.7 µM (inactive)

Question: What about the GI50 [12] of the same molecule?
Answer: 31.7 µM (inactive)

Question: And the GI50 [13]?
Answer: 6.1 µM (inactive)

Question: And the GI50 [14]?
Answer: 54.8 µM (inactive)

Question: And the GI50 [15]?
Answer: 47.4 µM (inactive)

Question: What about the GI50 [16] of the same molecule?
Answer: 75.3 µM (inactive)

Question: And the GI50 [17]?
Answer: > 100 µM (inactive)

Question: What about the GI50 [18] of the same molecule?
Answer: 61 µM (inactive)

Question: What about the GI50 [19] of the same molecule?
Answer: > 100 µM (inactive)

Question: And the GI50 [20]?
Answer: 44.3 µM (inactive)

Question: And the GI50 [21]?
Answer: 38.3 µM (inactive)

Question: And the GI50 [22]?
Answer: 33.2 µM (inactive)

Question: And the GI50 [23]?
Answer: 35.8 µM (inactive)

Question: And the GI50 [24]?
Answer: > 100 µM (inactive)

Question: And the GI50 [25]?
Answer: 27.8 µM (inactive)

Question: And the GI50 [26]?
Answer: > 100 µM (inactive)

Question: What about the GI50 [27] of the same molecule?
Answer: 74.5 µM (inactive)

Question: And the GI50 [28]?
Answer: 55.3 µM (inactive)

Question: And the GI50 [29]?
Answer: 14.3 µM (inactive)

Question: What about the GI50 [30] of the same molecule?
Answer: > 100 µM (inactive)

Question: What about the GI50 [31] of the same molecule?
Answer: 61.1 µM (inactive)

Question: What about the GI50 [32] of the same molecule?
Answer: 29.9 µM (inactive)

Question: What about the GI50 [33] of the same molecule?
Answer: 74 µM (inactive)

Question: What about the GI50 [34] of the same molecule?
Answer: > 100 µM (inactive)

Question: And the GI50 [35]?
Answer: > 100 µM (inactive)

Question: What about the GI50 [36] of the same molecule?
Answer: > 100 µM (inactive)

Question: And the GI50 [37]?
Answer: > 100 µM (inactive)

Question: What about the GI50 [38] of the same molecule?
Answer: > 100 µM

Question: And the GI50 [39]?
Answer: > 100 µM (inactive)

Question: What about the GI50 [40] of the same molecule?
Answer: > 100 µM (inactive)

Question: What about the GI50 [41] of the same molecule?
Answer: > 100 µM (inactive)

Question: And the GI50 [42]?
Answer: 88.3 µM (inactive)

Question: And the GI50 [43]?
Answer: > 100 µM (inactive)

Question: And the GI50 [44]?
Answer: > 100 µM (inactive)

Question: And the GI50 [45]?
Answer: 37.2 µM (inactive)

Question: What about the GI50 [46] of the same molecule?
Answer: > 100 µM (inactive)

Question: And the GI50 [47]?
Answer: > 100 µM (inactive)

Question: What about the GI50 [48] of the same molecule?
Answer: > 100 µM (inactive)

Question: And the GI50 [49]?
Answer: > 100 µM (inactive)

Question: What about the GI50 [50] of the same molecule?
Answer: 64.6 µM (inactive)

Question: And the GI50 [51]?
Answer: > 100 µM (inactive)

Question: And the GI50 [52]?
Answer: > 100 µM (inactive)

Question: What about the GI50 [53] of the same molecule?
Answer: > 100 µM (inactive)

Question: And the GI50 [54]?
Answer: 65.8 µM (inactive)

Question: For `Cc1cc(S(=O)(=O)Nc2nc(N)nc(N(C)C)n2)c(SCC(=O)O)cc1Cl`, which GI50 [2] is on record?
Answer: > 10 µM (inactive)

Question: What about the GI50 [3] of the same molecule?
Answer: > 10 µM (inactive)

Question: And the GI50 [4]?
Answer: > 10 µM (inactive)

Question: And the GI50 [5]?
Answer: > 10 µM (inactive)

Question: What about the GI50 [6] of the same molecule?
Answer: > 10 µM (inactive)

Question: What about the GI50 [7] of the same molecule?
Answer: > 10 µM (inactive)

Question: And the GI50 [8]?
Answer: > 10 µM (inactive)

Question: What about the GI50 [9] of the same molecule?
Answer: > 10 µM (inactive)

Question: What about the GI50 [55] of the same molecule?
Answer: > 10 µM (inactive)

Question: What about the GI50 [10] of the same molecule?
Answer: > 10 µM (inactive)

Question: And the GI50 [56]?
Answer: > 10 µM (inactive)

Question: What about the GI50 [11] of the same molecule?
Answer: > 10 µM (inactive)

Question: What about the GI50 [12] of the same molecule?
Answer: > 10 µM (inactive)

Question: And the GI50 [13]?
Answer: > 10 µM (inactive)

Question: And the GI50 [57]?
Answer: > 10 µM (inactive)

Question: And the GI50 [14]?
Answer: > 10 µM (inactive)

Question: And the GI50 [15]?
Answer: > 10 µM (inactive)

Question: What about the GI50 [16] of the same molecule?
Answer: > 10 µM (inactive)

Question: And the GI50 [17]?
Answer: > 10 µM (inactive)

Question: And the GI50 [18]?
Answer: > 10 µM (inactive)

Question: And the GI50 [19]?
Answer: > 10 µM (inactive)

Question: And the GI50 [20]?
Answer: > 10 µM (inactive)

Question: What about the GI50 [21] of the same molecule?
Answer: > 10 µM (inactive)

Question: What about the GI50 [22] of the same molecule?
Answer: > 10 µM (inactive)

Question: And the GI50 [23]?
Answer: > 10 µM (inactive)

Question: What about the GI50 [24] of the same molecule?
Answer: > 10 µM (inactive)

Question: And the GI50 [58]?
Answer: > 10 µM (inactive)

Question: And the GI50 [25]?
Answer: > 10 µM (inactive)

Question: And the GI50 [26]?
Answer: > 10 µM (inactive)

Question: What about the GI50 [27] of the same molecule?
Answer: > 10 µM (inactive)

Question: What about the GI50 [28] of the same molecule?
Answer: > 10 µM (inactive)

Question: What about the GI50 [29] of the same molecule?
Answer: > 10 µM (inactive)

Question: What about the GI50 [30] of the same molecule?
Answer: > 10 µM (inactive)

Question: And the GI50 [31]?
Answer: > 10 µM (inactive)

Question: And the GI50 [33]?
Answer: > 10 µM (inactive)

Question: And the GI50 [34]?
Answer: > 10 µM (inactive)

Question: What about the GI50 [35] of the same molecule?
Answer: > 10 µM (inactive)

Question: And the GI50 [36]?
Answer: > 10 µM (inactive)

Question: What about the GI50 [37] of the same molecule?
Answer: > 10 µM (inactive)

Question: And the GI50 [38]?
Answer: > 10 µM

Question: And the GI50 [41]?
Answer: > 10 µM (inactive)

Question: And the GI50 [42]?
Answer: > 10 µM (inactive)

Question: And the GI50 [43]?
Answer: > 10 µM (inactive)

Question: What about the GI50 [44] of the same molecule?
Answer: > 10 µM (inactive)

Question: And the GI50 [45]?
Answer: > 10 µM (inactive)

Question: What about the GI50 [46] of the same molecule?
Answer: > 10 µM (inactive)

Question: What about the GI50 [47] of the same molecule?
Answer: > 10 µM (inactive)

Question: And the GI50 [48]?
Answer: > 10 µM (inactive)

Question: What about the GI50 [49] of the same molecule?
Answer: > 10 µM (inactive)

Question: And the GI50 [50]?
Answer: > 10 µM (inactive)

Question: And the GI50 [51]?
Answer: > 10 µM (inactive)

Question: And the GI50 [52]?
Answer: > 10 µM (inactive)

Question: And the GI50 [53]?
Answer: > 10 µM (inactive)

Question: And the GI50 [59]?
Answer: > 10 µM (inactive)

Question: And the GI50 [54]?
Answer: > 10 µM (inactive)
